Values of other authors as cited in patent US10001483B2, “Methods for the treatment of Kaposi's sarcoma or KSHV-induced lymphoma using immunomodulatory compounds, and uses of biomarkers” (Celgene Corporation, priority 2015, dated 2018).
Where two headings read alike, the source gives them in different places.

Conditions: patients, cited from earlier work

What does the source list for O=C1CCC(N2C(=O)c3ccccc3C2=O)C(=O)N1 (stereo not shown) [thalidomide, 2-(2,6-dioxopiperidin-3-yl)-1H-isoindole-1,3(2H)-dione]?
Cmax (approved dose 200 mg): 1.76 µg/mL; Plasma Serum Concentration (approved dose 200 mg): 7 µM

Which results are given for Nc1cccc2c1CN(C1CCC(=O)NC1=O)C2=O (stereo not shown) [lenalidomide, 3-(4-amino-1-oxo 1,3-dihydro-2H-isoindol-2-yl) piperidine-2,6-dione]?
Cmax (approved dose 25 mg): 0.451 µg/mL; Plasma Serum Concentration (approved dose 25 mg): 2 µM
